Data: ChEMBL document CHEMBL1914411, “Synthesis of lipophilic dimeric C-7/C-7-linked ciprofloxacin and C-6/C-6-linked levofloxacin derivatives. Versatile in vitro biological evaluations of monomeric and dimeric fluoroquinolone derivatives as potential antitumor, antibacterial or antimycobacterial agents” (Eur J Med Chem, 2011)
Values after ≈ are worked out from the molar mass of the structure shown. Active and inactive are the calls of the source. The rule behind the calls is not given here.

What was measured:
Pseudomonas aeruginosa = assay: Antimicrobial activity against Pseudomonas aeruginosa CIP 82.118 after 18 to 24 hrs by broth microdilution method; assay type: functional
[1] = system: Mycobacterium tuberculosis; assay: Antimycobacterial activity against Mycobacterium tuberculosis H37Rv assessed as growth inhibition at 0.1 uM after 6 days by MTT colorimetric microassay; assay type: functional, organism-based
Staphylococcus aureus [2] = assay: Antimicrobial activity against Staphylococcus aureus CIP 4.83 after 18 to 24 hrs by broth microdilution method; assay type: functional
Enterococcus hirae = assay: Antimicrobial activity against Enterococcus hirae CIP 5855 after 18 to 24 hrs by broth microdilution method; assay type: functional
Escherichia coli = assay: Antimicrobial activity against Escherichia coli CIP 53126 after 18 to 24 hrs by broth microdilution method; assay type: functional
Staphylococcus aureus [3] = assay: Antimicrobial activity against multidrug-resistant Staphylococcus aureus isolate 2 after 18 to 24 hrs by broth microdilution method; assay type: functional
Staphylococcus aureus [4] = assay: Antimicrobial activity against methicillin-resistant Staphylococcus aureus ATCC 33592 after 18 to 24 hrs by broth microdilution method; assay type: functional
Staphylococcus aureus [5] = assay: Antimicrobial activity against multidrug-resistant Staphylococcus aureus isolate 1 after 18 to 24 hrs by broth microdilution method; assay type: functional
Staphylococcus aureus [6] = assay: Antimicrobial activity against methicillin-resistant Staphylococcus aureus ATCC 33591 after 18 to 24 hrs by broth microdilution method; assay type: functional

Compound	MBC (Pseudomonas aeruginosa)	MIC (Pseudomonas aeruginosa)	growth inhibition (GI) [1]	MBC (Staphylococcus aureus [2])	MIC (Staphylococcus aureus [2])	MBC (Enterococcus hirae)	MIC (Enterococcus hirae)	MBC (Escherichia coli)	MIC (Escherichia coli)	MBC (Staphylococcus aureus [3])	MIC (Staphylococcus aureus [3])	MBC (Staphylococcus aureus [4])	MIC (Staphylococcus aureus [4])	MBC (Staphylococcus aureus [5])	MIC (Staphylococcus aureus [5])	MBC (Staphylococcus aureus [6])	MIC (Staphylococcus aureus [6])
CCCCNC(=O)c1cn2c3c(c(N4CCN(C)CC4)c(F)cc3c1=O)OC[C@@H]2C	250 µM (≈ 104 µg/mL)	62.5 µM (≈ 26 µg/mL)	inactive	125 µM (≈ 52.1 µg/mL)	125 µM (≈ 52.1 µg/mL)	250 µM (≈ 104 µg/mL)	125 µM (≈ 52.1 µg/mL)	62.5 µM (≈ 26 µg/mL)	62.5 µM (≈ 26 µg/mL)	–	–	–	–	–	–	–	–
CCCCCCCCCOC(=O)N1CCN(c2cc3c(cc2F)c(=O)c(C(=O)O)cn3C2CC2)CC1	250 µM (≈ 125 µg/mL)	125 µM (≈ 62.7 µg/mL)	inactive	125 µM (≈ 62.7 µg/mL)	62.5 µM (≈ 31.3 µg/mL)	250 µM (≈ 125 µg/mL)	62.5 µM (≈ 31.3 µg/mL)	500 µM (≈ 251 µg/mL)	125 µM (≈ 62.7 µg/mL)	–	–	–	–	–	–	–	–
CCCC(=O)N1CCN(c2cc3c(cc2F)c(=O)c(C(=O)O)cn3C2CC2)CC1	250 µM (≈ 100 µg/mL)	62.5 µM (≈ 25.1 µg/mL)	inactive	≤ 0.48 µM	≤ 0.48 µM	7.8 µM (≈ 3.13 µg/mL)	7.8 µM (≈ 3.13 µg/mL)	7.8 µM (≈ 3.13 µg/mL)	7.8 µM (≈ 3.13 µg/mL)	62.5 µM (≈ 25.1 µg/mL)	31.2 µM (≈ 12.5 µg/mL)	0.48 µM (≈ 0.193 µg/mL)	0.24 µM (≈ 0.0963 µg/mL)	62.5 µM (≈ 25.1 µg/mL)	31.2 µM (≈ 12.5 µg/mL)	0.48 µM (≈ 0.193 µg/mL)	0.48 µM (≈ 0.193 µg/mL)
CCCCC(=O)N1CCN(c2cc3c(cc2F)c(=O)c(C(=O)O)cn3C2CC2)CC1	250 µM (≈ 104 µg/mL)	62.5 µM (≈ 26 µg/mL)	inactive	≤ 0.48 µM	≤ 0.24 µM	7.8 µM (≈ 3.24 µg/mL)	7.8 µM (≈ 3.24 µg/mL)	15.6 µM (≈ 6.48 µg/mL)	7.8 µM (≈ 3.24 µg/mL)	31.2 µM (≈ 13 µg/mL)	31.2 µM (≈ 13 µg/mL)	0.48 µM (≈ 0.199 µg/mL)	0.24 µM (≈ 0.0997 µg/mL)	500 µM (≈ 208 µg/mL)	62.5 µM (≈ 26 µg/mL)	0.48 µM (≈ 0.199 µg/mL)	0.48 µM (≈ 0.199 µg/mL)
O=C(O)c1cn(C2CC2)c2cc(N3CCN(C(=O)COCc4ccccc4)CC3)c(F)cc2c1=O	250 µM (≈ 120 µg/mL)	15.6 µM (≈ 7.48 µg/mL)	inactive	≤ 0.24 µM	≤ 0.12 µM	7.8 µM (≈ 3.74 µg/mL)	7.8 µM (≈ 3.74 µg/mL)	1.9 µM (≈ 0.911 µg/mL)	≤ 0.97 µM	125 µM (≈ 59.9 µg/mL)	62.5 µM (≈ 30 µg/mL)	0.97 µM (≈ 0.465 µg/mL)	0.24 µM (≈ 0.115 µg/mL)	500 µM (≈ 240 µg/mL)	125 µM (≈ 59.9 µg/mL)	0.97 µM (≈ 0.465 µg/mL)	0.48 µM (≈ 0.23 µg/mL)
CCCCCCCCCCOC(=O)N1CCN(c2cc3c(cc2F)c(=O)c(C(=O)O)cn3C2CC2)CC1	250 µM (≈ 129 µg/mL)	125 µM (≈ 64.5 µg/mL)	inactive	62.5 µM (≈ 32.2 µg/mL)	62.5 µM (≈ 32.2 µg/mL)	500 µM (≈ 258 µg/mL)	62.5 µM (≈ 32.2 µg/mL)	500 µM (≈ 258 µg/mL)	125 µM (≈ 64.5 µg/mL)	–	–	–	–	–	–	–	–
CC(=O)N1CCN(c2cc3c(cc2F)c(=O)c(C(=O)O)cn3C2CC2)CC1	31.2 µM (≈ 11.6 µg/mL)	31.2 µM (≈ 11.6 µg/mL)	inactive	1.9 µM (≈ 0.709 µg/mL)	≤ 0.48 µM	7.8 µM (≈ 2.91 µg/mL)	7.8 µM (≈ 2.91 µg/mL)	1.9 µM (≈ 0.709 µg/mL)	1.9 µM (≈ 0.709 µg/mL)	62.5 µM (≈ 23.3 µg/mL)	31.2 µM (≈ 11.6 µg/mL)	0.97 µM (≈ 0.362 µg/mL)	0.48 µM (≈ 0.179 µg/mL)	500 µM (≈ 187 µg/mL)	62.5 µM (≈ 23.3 µg/mL)	0.97 µM (≈ 0.362 µg/mL)	0.97 µM (≈ 0.362 µg/mL)
CC(C)(C)C(=O)N1CCN(c2cc3c(cc2F)c(=O)c(C(=O)O)cn3C2CC2)CC1	250 µM (≈ 104 µg/mL)	62.5 µM (≈ 26 µg/mL)	inactive	≤ 0.97 µM	≤ 0.48 µM	7.8 µM (≈ 3.24 µg/mL)	7.8 µM (≈ 3.24 µg/mL)	31.2 µM (≈ 13 µg/mL)	15.6 µM (≈ 6.48 µg/mL)	31.2 µM (≈ 13 µg/mL)	31.2 µM (≈ 13 µg/mL)	0.48 µM (≈ 0.199 µg/mL)	0.24 µM (≈ 0.0997 µg/mL)	500 µM (≈ 208 µg/mL)	31.2 µM (≈ 13 µg/mL)	0.48 µM (≈ 0.199 µg/mL)	0.48 µM (≈ 0.199 µg/mL)
O=C(O)c1cn(C2CC2)c2cc(N3CCN(C(=O)CCl)CC3)c(F)cc2c1=O	250 µM (≈ 102 µg/mL)	31.2 µM (≈ 12.7 µg/mL)	inactive	≤ 0.97 µM	≤ 0.97 µM	3.9 µM (≈ 1.59 µg/mL)	3.9 µM (≈ 1.59 µg/mL)	≤ 0.97 µM	≤ 0.97 µM	–	–	–	–	–	–	–	–
O=C(O)c1cn(C2CC2)c2cc(N3CCN(C(=O)CCCCCCCCCCCCCCC(=O)N4CCN(c5cc6c(cc5F)c(=O)c(C(=O)O)cn6C5CC5)CC4)CC3)c(F)cc2c1=O	250 µM (≈ 228 µg/mL)	62.5 µM (≈ 57.1 µg/mL)	inactive	15.6 µM (≈ 14.2 µg/mL)	1.9 µM (≈ 1.73 µg/mL)	500 µM (≈ 457 µg/mL)	62.5 µM (≈ 57.1 µg/mL)	500 µM (≈ 457 µg/mL)	62.5 µM (≈ 57.1 µg/mL)	–	–	–	–	–	–	–	–
CCCCCCCCOC(=O)N1CCN(c2cc3c(cc2F)c(=O)c(C(=O)O)cn3C2CC2)CC1	250 µM (≈ 122 µg/mL)	125 µM (≈ 60.9 µg/mL)	inactive	62.5 µM (≈ 30.5 µg/mL)	7.8 µM (≈ 3.8 µg/mL)	125 µM (≈ 60.9 µg/mL)	125 µM (≈ 60.9 µg/mL)	500 µM (≈ 244 µg/mL)	125 µM (≈ 60.9 µg/mL)	–	–	–	–	–	–	–	–
